From patent US10543208B2, “Treatment of gliomas using organonitro compound combination therapy” (priority 2015, dated 2020)

Test system: temozolomide-resistant EGFRvIII/Arfko GBM (NSCG) cells
Experiment: Survival of mice after intracranial injection of NSCG tumors
Type: in vivo, FVBN mice
Conditions: ABDNAZ 10 mg/kg intraperitoneal, temozolomide 40 mg/kg oral gavage
Experimental: Mice implanted with temozolomide-resistant EGFRvIII/Arfko GBM (NSCG) cells were treated with (i) ABDNAZ (RRx-001, 10 mg/kg, intraperitoneal injection), (ii) temozolomide (TMZ)(40 mg/kg, oral gavage), or (iii) ABDNAZ (10 mg/kg, intraperitoneal injection) and temozolomide (40 mg/kg, oral gavage).
NSCG tumors were intracranially injected into FVBN mice. Mice to be treated were treated with one of the following (i) ABDNAZ (10 mg/kg, intraperitoneal injection), (ii) temozolomide (40 mg/kg, oral gavage), or (iii) ABDNAZ (10 mg/kg, intraperitoneal injection) and temozolomide (40 mg/kg, oral gavage). In a first experiment, treatment (i.e., administration of ABDNAZ (RRx-001), temozolomide (TMZ), or both ABDNAZ and temozolomide) was started five days after intracranial injection of NSCG cells. The control population of mice contained ten mice, the group receiving only ABDNAZ had twelve mice, the group receiving only temozolomide had twelve mice, and the group receiving both ABDNAZ and temozolomide had sixteen mice. Mouse survival was monitored over time.
In a second experiment, treatment (i.e., administration of ABDNAZ (RRx-001), temozolomide (TMZ), or both ABDNAZ and temozolomide) was started ten days after intracranial injection of NSCG cells. The control population of mice contained three mice, the group receiving only ABDNAZ had five mice, the group receiving only temozolomide had four mice, and the group receiving both ABDNAZ and temozolomide had six mice. Mouse survival was monitored over time.

[1] = treatment started five days after intracranial injection of NSCG cells, control 22.2
[2] = treatment started ten days after intracranial injection of NSCG cells, control 22.1

SMILES | Median Survival Time [1] | Median Survival Time [2]
O=C(CBr)N1CC([N+](=O)[O-])([N+](=O)[O-])C1 [ABDNAZ] | 25.3 days | 22.5 days
Cn1nnc2c(C(N)=O)ncn2c1=O [TMZ, 3,4-dihydro-3-methyl-4-oxoimidazo[5,1-d]-as-tetrazine-8-carboxamide] | 22.3 days | 22.3 days
